From patent publication US20140031217A1, “HERBICIDAL COMPOSITIONS COMPRISING 4-AMINO-3-CHLORO-5-FLUORO-6-(4-CHLORO-2-FLUORO-3-METHOXYPHENYL)PYRIDINE-2-CARBOXYLIC ACID OR A DERIVATIVE THEREOF AND AUXIN TRANSPORT INHIBITORS” (DOW AGROSCIENCES LLC, priority 2012, published 2014)

Columns and labels:
[1] = test system: CYPIR; experiment: Postemergence foliar-applied greenhouse weed control, CYPIR; assay type: in vivo, Cyperus iria L.
Text: (§1) Seeds or nutlets of the desired test plant species were planted in a soil matrix prepared by mixing a loam or sandy loam soil (e.g., 28.6 percent silt, 18.8 percent clay, and 52.6 percent sand, with a pH of about 5.8 and an organic matter content of about 1.8 percent) and calcareous grit in an 80 to 20 ratio. The soil matrix was contained in plastic pots with a volume of 1 quart and a surface area of 83.6 square centimeters (cm^2). When required to ensure good germination and healthy plants, a fungicide treatment and/or other chemical or physical treatment was applied. The plants were grown for 8-22 days in a greenhouse with an approximate 14 h photoperiod which was maintained at about 29° C. during the day and 26° C. during the night. Nutrients (Peters Excel® 15-5-15 5-Ca 2-Mg and iron chelate) were applied in the irrigation solution as needed and water was added on a regular basis. Supplemental lighting was provided with overhead metal halide 1000-Watt lamps as necessary. The plants were employed for testing when they reached the first through fourth true leaf stage.
(§2) Treatments consisted of the acid or esters of 4-amino-3-chloro-5-fluoro-6-(4-chloro-2-fluoro-3-methoxy-phenyl) pyridine-2-carboxylic acid (Compound A), each formulated as an SC (suspension concentrate), and various herbicidal components alone and in combination. Forms of compound A were applied on an acid equivalent basis.
(§3) Other herbicidal components were applied on an active ingredient basis and included auxin transport inhibiting (ATI) herbicides chlorflurenol (technical material), chlorflurenol-methyl (technical material), diflufenzopyr (technical material), diflufenzopyr sodium (technical material), flurenol-methyl (technical material) and naptalam (technical material).
(§4) Treatment requirements were calculated based upon the rates being tested, the concentration of active ingredient or acid equivalent in the formulation, and a 12 mL application volume at a rate of 187 L/ha.
(§5) For treatments comprised of formulated and technical compounds, weighed amounts of the technical materials were placed individually in 25 mL glass vials and dissolved in a volume of 97:3 v/v acetone/DMSO to obtain 12× stock solutions, and measured amounts of the formulated compounds were placed individually in 25 mL glass vials and diluted in a volume of 1.5% (v/v) crop oil concentrate or water to obtain 12× stock solutions. […] Application solutions were prepared by adding an appropriate amount of each stock solution (e.g., 1 mL) and diluted to the appropriate final concentrations with the addition of an appropriate amount of an aqueous mixture of 1.5% (v/v) crop oil concentrate so that the final spray solutions contained 1.25% (v/v) crop oil concentrate. When required, additional water and/or 97:3 v/v acetone/DMSO was added to individual application solutions so that the final acetone and DMSO concentrations of the application solutions being compared were 8.1% and 0.25%, respectively.
(§6) All stock solutions and applications solutions were visually inspected for compound compatibility prior to application. Spray solutions were applied to the plant material with an overhead Mandel track sprayer equipped with an 8002E nozzle calibrated to deliver 187 L/ha over an application area of 0.503 m^2 at a spray height of 18 to 20 inches (46 to 50 cm) above average plant canopy height. Control plants were sprayed in the same manner with the solvent blank.
(§7) The treated plants and control plants were placed in a greenhouse as described above and watered by sub-irrigation to prevent wash-off of the test compounds. After approximately 3 weeks, the condition of the test plants as compared with that of the untreated plants was determined visually and scored on a scale of 0 to 100 percent where 0 corresponds to no injury or growth inhibition and 100 corresponds to complete kill. […]

[2] = test system: DIGSA; experiment: Postemergence foliar-applied greenhouse weed control, DIGSA; assay type: in vivo, Digitaria sanguinalis (L.) Scop.; details: 20 DAA
Text: as §1, §2, §3, §4, §5, §6, §7

[3] = test system: ECHCG; experiment: Postemergence foliar-applied greenhouse weed control, ECHCG; assay type: in vivo, Echinochloa crusgalli (L.) Beauv.; details: 20 DAA
Text: as §1, §2, §3, §4, §5, §6, §7

[4] = test system: ECHCO; experiment: Postemergence foliar-applied greenhouse weed control, ECHCO; assay type: in vivo, Echinochloa colona (L.) Link; details: 20 DAA
Text: as §1, §2, §3, §4, §5, §6, §7

[5] = test system: IPOHE; experiment: Postemergence foliar-applied greenhouse weed control, IPOHE; assay type: in vivo, Ipomoea hederacea Jacq.
Text: as §1, §2, §3, §4, §5, §6, §7

[6] = test system: LEFCH; experiment: Postemergence foliar-applied greenhouse weed control, LEFCH; assay type: in vivo, Leptochloa chinensis (L.) Nees
Text: as §1, §2, §3, §4, §5, §6, §7

[7] = test system: ECHCG; experiment: In-water applied (paddy) greenhouse weed control, ECHCG; assay type: in vivo, Echinochloa crusgalli (L.) Beauv.
Description: (§8) Weed seeds or nutlets of the desired test plant species were planted in puddled soil (mud) prepared by mixing a shredded, non-sterilized mineral soil (50.5 percent silt, 25.5 percent clay, and 24 percent sand, with a pH of about 7.6 and an organic matter content of about 2.9 percent) and water at a 1:1 volumetric ratio. The prepared mud was dispensed in 365 mL aliquots into 16-ounce (oz.) non-perforated plastic pots with a surface area of 86.59 square centimeters (cm^2) leaving a headspace of 3 centimeters (cm) in each pot. Mud was allowed to dry overnight prior to planting or transplanting. Rice seeds were planted in Sun Gro MetroMix® 306 planting mixture, which typically has a pH of 6.0 to 6.8 and an organic matter content of about 30 percent, in plastic plug trays. Seedlings at the second or third leaf stage of growth were transplanted into 840 mL of mud contained in 32-oz. non-perforated plastic pots with a surface area of 86.59 cm^2 4 days prior to herbicide application. The paddy was created by filling the headspace of the pots with 2.5 to 3 cm of water. When required to ensure good germination and healthy plants, a fungicide treatment and/or other chemical or physical treatment was applied. The plants were grown for 4-22 days in a greenhouse with an approximate 14 h photoperiod which was maintained at about 29′C during the day and 26° C. during the night. Nutrients were added as Osmocote® (19:6:12, N:P:K+minor nutrients) at 2 g per 16-oz. pot and 4 g per 960-mL 32-oz. pot. Water was added on a regular basis to maintain the paddy flood, and supplemental lighting was provided with overhead metal halide 1000-Watt lamps as necessary. The plants were employed for testing when they reached the second or third true leaf stage.
(§9) Treatments consisted of the acid or esters of 4-amino-3-chloro-5-fluoro-6-(4-chloro-2-fluoro-3-methoxy-phenyl)pyridine-2-carboxylic acid (compound A) each formulated as an SC and various herbicidal components alone and in combination. Forms of compound A were applied on an acid equivalent basis.
(§10) Other herbicidal components were applied on an active ingredient basis and included auxin transport inhibiting (ATI) herbicides chlorflurenol-methyl (technical material), chlorflurenol (technical material), diflufenzopyr (technical material), dilfufenzopyr sodium (technical material), flurenol-methyl (technical material,) and naptalam (technical material).
(§11) Treatment requirements for each compound or herbicidal component were calculated based upon the rates being tested, the concentration of active ingredient or acid equivalent in the formulation, an application volume of 2 mL per component per pot, and an application area of 86.59 cm^2 per pot.
(§12) For formulated compounds, a measured amount was placed in an individual 100 or 200 mL glass vial and was dissolved in a volume of 1.25% (v/v) Agri-Dex® crop oil concentrate to obtain application solutions.
(§13) For technical grade compounds, a weighed amount was placed in an individual 100 to 200 mL glass vial and was dissolved in a volume of acetone to obtain concentrated stock solutions. […] The concentrated stock solutions obtained were diluted with an equivalent volume of an aqueous mixture containing 2.5% (v/v) crop oil concentrate so that the final application solutions contained 1.25% (v/v) crop oil concentrate.
(§14) Applications were made by injecting with a pipetter appropriate amounts of the application solutions, individually and sequentially, into the aqueous layer of the paddy. Control plants were treated in the same manner with the solvent blank. Applications were made so that all treated plant material received the same concentrations of acetone and crop oil concentrate.
(§15) The treated plants and control plants were placed in a greenhouse as described above and water was added as needed to maintain a paddy flood. […]

[8] = test system: ECHOR; experiment: In-water applied (paddy) greenhouse weed control, ECHOR; assay type: in vivo, Echinochloa oryzoides (Ard.) Fritsch
Description: as §8, §9, §10, §11, §12, §13, §14, §15

[9] = test system: LEFCH; experiment: In-water applied (paddy) greenhouse weed control, LEFCH; assay type: in vivo, Leptochloa chinensis (L.) Nees; details: 20 DAA
Description: as §8, §9, §10, §11, §12, §13, §14, §15

[10] = test system: SCPMA; experiment: In-water applied (paddy) greenhouse weed control, SCPMA; assay type: in vivo; details: 20 DAA
Description: as §8, §9, §10, §11, §12, §13, §14, §15

[11] = test system: BRAPP; experiment: Postemergence foliar-applied greenhouse weed control, BRAPP; assay type: in vivo, Brachiaria platyphylla (Griseb.) Nash; details: 22 DAA
Text: as §1, §2, §3, §4, §5, §6, §7

[12] = test system: CYPRO; experiment: In-water applied (paddy) greenhouse weed control, CYPRO; assay type: in vivo, Cyperus rotundus L.; details: 19 DAA
Description: as §8, §9, §10, §11, §12, §13, §14, §15

[13] = test system: FIMMI; experiment: In-water applied (paddy) greenhouse weed control, FIMMI; assay type: in vivo, Fimbristylis miliacea (L.) Vahl; details: 19 DAA
Description: as §8, §9, §10, §11, §12, §13, §14, §15

SMILES: COC(=O)C1(O)c2ccccc2-c2ccc(Cl)cc21 (centres unmarked) [Chlorflurenol-Methyl, methyl 2-chloro-9-hydroxy-9H-fluorene-9-carboxylate, reference compound]
- Visual Weed Control (%) Obs ([1]; 20 DAA, 68.75 gai/ha): 0%
- Visual Weed Control (%) Obs ([1]; 20 DAA, 137.5 gai/ha): 0%
- Visual Weed Control (%) Obs ([1]; 20 DAA, 275 gai/ha): 0%
- Visual Weed Control (%) Obs ([2]; 68.75 gai/ha): 0%
- Visual Weed Control (%) Obs ([2]; 137.5 gai/ha): 0%
- Visual Weed Control (%) Obs ([2]; 275 gai/ha): 0%
- Visual Weed Control (%) Obs ([3]; 68.75 gai/ha): 0%
- Visual Weed Control (%) Obs ([3]; 137.5 gai/ha): 0%
- Visual Weed Control (%) Obs ([3]; 275 gai/ha): 0%
- Visual Weed Control (%) Obs ([4]; 68.75 gai/ha): 0%
- Visual Weed Control (%) Obs ([4]; 137.5 gai/ha): 0%
- Visual Weed Control (%) Obs ([4]; 275 gai/ha): 0%
- Visual Weed Control (%) Obs ([5]; 20 DAA, 137.5 gai/ha): 50%
- Visual Weed Control (%) Obs ([5]; 20 DAA, 275 gai/ha): 55%
- Visual Weed Control (%) Obs ([6]; 20 DAA, 68.75 gai/ha): 0%
- Visual Weed Control (%) Obs ([6]; 20 DAA, 137.5 gai/ha): 10%
- Visual Weed Control (%) Obs ([6]; 20 DAA, 275 gai/ha): 10%
- Visual Weed Control (%) Obs ([7]; 20 DAA, 275 gai/ha): 15%
- Visual Weed Control (%) Obs ([7]; 20 DAA, 550 gai/ha): 20%
- Visual Weed Control (%) Obs ([8]; 20 DAA, 275 gai/ha): 20%
- Visual Weed Control (%) Obs ([8]; 20 DAA, 550 gai/ha): 10%
- Visual Weed Control (%) Obs ([9]; 275 gai/ha): 0%
- Visual Weed Control (%) Obs ([9]; 550 gai/ha): 0%
- Visual Weed Control (%) Obs ([10]; 275 gai/ha): 75%
- Visual Weed Control (%) Obs ([10]; 550 gai/ha): 80%

SMILES: O=C(O)c1ccccc1C(=O)Nc1cccc2ccccc12 [Naptalam, 2-[(1-naphthalenylamino)carbonyl]benzoic acid, reference compound]
- Visual Weed Control (%) Obs ([11]; 30 gai/ha): 0%
- Visual Weed Control (%) Obs ([11]; 60 gai/ha): 0%
- Visual Weed Control (%) Obs ([11]; 120 gai/ha): 0%
- Visual Weed Control (%) Obs ([5]; 22 DAA, 60 gai/ha): 15%
- Visual Weed Control (%) Obs ([5]; 22 DAA, 120 gai/ha): 15%
- Visual Weed Control (%) Obs ([6]; 22 DAA, 60 gai/ha): 15%
- Visual Weed Control (%) Obs ([6]; 22 DAA, 120 gai/ha): 15%
- Visual Weed Control (%) Obs ([12]; 330 gai/ha): 0%
- Visual Weed Control (%) Obs ([12]; 1320 gai/ha): 50%
- Visual Weed Control (%) Obs ([7]; 19 DAA, 330 gai/ha): 20%
- Visual Weed Control (%) Obs ([8]; 19 DAA, 330 gai/ha): 20%
- Visual Weed Control (%) Obs ([8]; 19 DAA, 660 gai/ha): 25%
- Visual Weed Control (%) Obs ([8]; 19 DAA, 1320 gai/ha): 30%
- Visual Weed Control (%) Obs ([13]; 330 gai/ha): 50%

SMILES: COC(=O)C1(O)c2ccccc2-c2ccccc21 [Flurenol-methyl]
- Visual Weed Control (%) Obs ([11]; 68.75 gai/ha): 0%
- Visual Weed Control (%) Obs ([11]; 137.5 gai/ha): 0%
- Visual Weed Control (%) Obs ([11]; 275 gai/ha): 30%
- Visual Weed Control (%) Obs ([1]; 22 DAA, 68.75 gai/ha): 0%
- Visual Weed Control (%) Obs ([1]; 22 DAA, 137.5 gai/ha): 0%
- Visual Weed Control (%) Obs ([1]; 22 DAA, 275 gai/ha): 60%
- Visual Weed Control (%) Obs ([12]; 68.75 gai/ha): 0%
- Visual Weed Control (%) Obs ([12]; 137.5 gai/ha): 0%
- Visual Weed Control (%) Obs ([7]; 19 DAA, 68.75 gai/ha): 0%
- Visual Weed Control (%) Obs ([7]; 19 DAA, 137.5 gai/ha): 0%
- Visual Weed Control (%) Obs ([7]; 19 DAA, 275 gai/ha): 0%
- Visual Weed Control (%) Obs ([13]; 68.75 gai/ha): 0%
- Visual Weed Control (%) Obs ([13]; 137.5 gai/ha): 0%
- Visual Weed Control (%) Obs ([13]; 275 gai/ha): 20%
